ChEMBL document CHEMBL5634069, “Exploring N-myristoyltransferase as a promising drug target against parasitic neglected tropical diseases” (Eur J Med Chem, 2023)

Key:
[1] = Inhibition of recombinant Leishmania donovani NMT
[2] = molecular target: T1, Glycylpeptide N-tetradecanoyltransferase (Plasmodium falciparum, UniProt Q9U419); experiment: Inhibition of recombinant his tagged Plasmodium falciparum NMT expressed in Escherichia coli
T1 sequence (Q9U419 whole entry): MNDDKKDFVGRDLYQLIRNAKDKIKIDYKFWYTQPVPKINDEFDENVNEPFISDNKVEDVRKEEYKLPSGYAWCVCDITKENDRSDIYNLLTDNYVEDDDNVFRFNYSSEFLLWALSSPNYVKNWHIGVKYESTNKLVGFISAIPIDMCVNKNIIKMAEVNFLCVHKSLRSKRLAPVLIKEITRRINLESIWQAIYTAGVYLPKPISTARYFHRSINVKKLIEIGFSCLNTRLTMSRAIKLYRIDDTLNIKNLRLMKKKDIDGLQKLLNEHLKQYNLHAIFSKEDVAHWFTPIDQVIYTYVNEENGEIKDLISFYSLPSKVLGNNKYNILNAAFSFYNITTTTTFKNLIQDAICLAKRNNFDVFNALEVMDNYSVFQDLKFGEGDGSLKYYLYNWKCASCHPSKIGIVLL

[3] = system: Plasmodium falciparum; experiment: Antiplasmodial activity against Plasmodium falciparum 3D7 assessed as reduction in parasitemia growth; format: functional, organism-based
[4] = Inhibition of Leishmania donovani NMT using 3H-myristoyl CoA as substrate preincubated for 15 mins followed by substrate addition and measured after 80 mins
[5] = molecular target: T1, Glycylpeptide N-tetradecanoyltransferase; experiment: Inhibition of recombinant N-terminal Plasmodium falciparum NMT expressed in Escherichia coli using peptide substrate preincubated for 5 mins followed by substrate addition and measured after 30 mins by scintillation proximity assay
[6] = system: Plasmodium falciparum; experiment: Antiplasmodial activity against synchronized late stage trophozoite Plasmodium falciparum 3D7 assessed as reduction in parasitemia relative to control; format: functional; design: scale not given: the % may be the effect or the level left
[7] = Inhibition of Trypanosoma brucei NMT
[8] = molecular target: T2, Glycylpeptide N-tetradecanoyltransferase 1 (Homo sapiens, UniProt P30419); experiment: Inhibition of human NMT
T2 sequence (P30419 whole entry): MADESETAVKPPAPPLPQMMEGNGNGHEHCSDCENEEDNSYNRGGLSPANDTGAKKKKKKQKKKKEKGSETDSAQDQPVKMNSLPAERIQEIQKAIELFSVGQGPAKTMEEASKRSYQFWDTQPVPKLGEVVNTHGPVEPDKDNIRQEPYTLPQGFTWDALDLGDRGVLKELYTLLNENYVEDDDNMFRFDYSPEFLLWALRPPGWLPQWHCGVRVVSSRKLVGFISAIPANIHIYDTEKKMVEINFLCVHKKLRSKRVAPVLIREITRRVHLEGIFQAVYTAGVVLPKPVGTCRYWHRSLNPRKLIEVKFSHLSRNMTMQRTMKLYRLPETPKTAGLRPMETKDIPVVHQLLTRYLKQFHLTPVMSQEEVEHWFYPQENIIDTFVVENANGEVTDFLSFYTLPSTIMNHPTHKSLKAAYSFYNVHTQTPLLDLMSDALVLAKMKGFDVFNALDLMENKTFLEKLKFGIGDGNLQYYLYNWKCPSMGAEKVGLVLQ

[9] = system: Trypanosoma brucei; experiment: Antitrypanosomal activity against Trypanosoma brucei assessed as reduction in parasite growth; format: functional, organism-based
[10] = system: Plasmodium falciparum; experiment: Antiplasmodial activity against Plasmodium falciparum; format: functional, organism-based
[11] = system: Trypanosoma cruzi; experiment: Antiprotozoal activity against Trypanosoma cruzi amastigotes measured after 24 hrs; format: functional, organism-based
[12] = system: Trypanosoma cruzi; experiment: Antiprotozoal activity against Trypanosoma cruzi epimastigotes assessed as reduction in parasite growth relative to control; format: functional; design: scale not given: the % may be the effect or the level left
[13] = system: Leishmania donovani; experiment: Antileishmanial activity against Leishmania donovani MHOM/ET/67/HU3 axenic amastigotes; format: functional, organism-based
[14] = system: Leishmania donovani; experiment: Antileishmanial activity against Leishmania donovani MHOM/ET/67/HU3 infected in BALB/c mouse model assessed as reduction in parasitic load at 50 mg/kg, po measured after 5 days relative to control; format: functional; design: scale not given: the % may be the effect or the level left; details: time 5 day
[15] = molecular target: T3, Glycylpeptide N-tetradecanoyltransferase (Plasmodium vivax (strain Salvador I), UniProt A5K1A2); experiment: Inhibition of recombinant Plasmodium vivax NMT
T3 sequence (A5K1A2 whole entry): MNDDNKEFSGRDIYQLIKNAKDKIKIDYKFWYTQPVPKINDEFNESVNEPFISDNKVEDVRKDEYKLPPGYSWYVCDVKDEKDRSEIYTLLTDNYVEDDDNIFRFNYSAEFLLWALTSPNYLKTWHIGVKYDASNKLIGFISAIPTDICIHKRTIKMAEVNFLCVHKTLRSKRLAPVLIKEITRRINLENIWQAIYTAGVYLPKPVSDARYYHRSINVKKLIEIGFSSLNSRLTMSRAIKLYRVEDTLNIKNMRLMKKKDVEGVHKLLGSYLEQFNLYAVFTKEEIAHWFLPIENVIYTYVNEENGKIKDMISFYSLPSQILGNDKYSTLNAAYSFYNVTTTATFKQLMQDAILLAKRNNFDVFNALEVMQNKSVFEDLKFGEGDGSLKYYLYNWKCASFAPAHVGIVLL

[16] = molecular target: T1, Glycylpeptide N-tetradecanoyltransferase; experiment: Inhibition of recombinant Plasmodium falciparum NMT
[17] = molecular target: T2, Glycylpeptide N-tetradecanoyltransferase 1; experiment: Inhibition of recombinant human NMT
[18] = Inhibition of Trypanosoma brucei NMT by scintillation proximity assay
[19] = molecular target: T1, Glycylpeptide N-tetradecanoyltransferase; experiment: Binding affinity to Plasmodium falciparum NMT assessed as inhibition constant using GSNKSKPKDASQRRR-NH2 as peptide substrate
[20] = molecular target: T3, Glycylpeptide N-tetradecanoyltransferase; experiment: Binding affinity to Plasmodium vivax NMT assessed as inhibition constant using YnMyr-CoA as substrate
[21] = molecular target: T1, Glycylpeptide N-tetradecanoyltransferase; experiment: Inhibition of recombinant Plasmodium falciparum NMT using 3H-myristoyl CoA as substrate preincubated for 15 mins followed by substrate addition and measured after 80 mins
[22] = molecular target: T2, Glycylpeptide N-tetradecanoyltransferase 1; experiment: Inhibition of human NMT1
[23] = molecular target: T4, Glycylpeptide N-tetradecanoyltransferase 2 (Homo sapiens, UniProt O60551); experiment: Inhibition of human NMT2
T4 sequence (O60551 whole entry): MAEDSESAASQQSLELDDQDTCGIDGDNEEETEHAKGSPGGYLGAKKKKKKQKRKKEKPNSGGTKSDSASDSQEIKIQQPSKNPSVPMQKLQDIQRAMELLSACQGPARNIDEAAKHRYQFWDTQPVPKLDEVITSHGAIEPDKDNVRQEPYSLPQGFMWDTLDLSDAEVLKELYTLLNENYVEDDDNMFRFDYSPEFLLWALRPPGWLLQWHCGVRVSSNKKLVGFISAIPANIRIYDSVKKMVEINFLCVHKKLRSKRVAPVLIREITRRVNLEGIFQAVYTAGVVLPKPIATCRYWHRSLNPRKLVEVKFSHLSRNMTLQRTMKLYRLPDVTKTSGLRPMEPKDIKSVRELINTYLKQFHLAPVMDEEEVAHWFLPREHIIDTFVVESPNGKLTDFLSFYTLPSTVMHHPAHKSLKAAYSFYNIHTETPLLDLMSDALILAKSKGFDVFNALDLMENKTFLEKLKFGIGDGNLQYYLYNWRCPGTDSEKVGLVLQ

[24] = Binding affinity to Leishmania donovani NMT assessed as apparent inhibition constant; details: read-out: Ki(app)
[25] = system: Leishmania donovani; experiment: Antileishmanial activity against Leishmania donovani amastigotes; format: functional, organism-based
[26] = system: Leishmania donovani; experiment: Antileishmanial activity against Leishmania donovani promastigotes; format: functional, organism-based
[27] = Inhibition of full length Caenorhabditis elegans NMT expressed in Escherichia coli incubated for 10 mins by liquid scintillation analysis
[28] = Inhibition of full length Brugia malayi NMT expressed in Escherichia coli incubated for 10 mins by liquid scintillation analysis

CCOC(=O)c1cnc2ccc(OCc3ccc(N4CCNCC4)nc3)cc2c1SCCC#N
IC50 [1]: 24 nM

Cc1cc(Nc2ccc([N+](=O)[O-])cc2O)nc2ccccc12
IC50 [2]: 1400 nM
EC50 [3]: 400 nM

c1cncc(CCNCc2cccc(-c3cccc(CN4CCc5ncsc5C4)c3)c2)c1
IC50 [4]: 160 nM

O=C(Nc1nc2ccccc2s1)[C@H]1CC[C@@H](NCc2ccc3ccccc3c2)CC1
IC50 [5]: 30000 nM
Activity [6]: 80%

Cc1cc(CN2C(=O)COc3c(CCCCC4CCCN(C)CC4)cccc32)no1 (stereo not drawn)
IC50 [7]: < 2 nM
IC50 [8]: 100 nM
EC50 [9]: 7 nM

Cc1ccc(S(=O)(=O)NC(C)C(=O)NC(C)C(=O)NC23CC4CC(CC(C4)C2)C3)cc1 (stereo not drawn)
IC50 [10]: 3600 nM

Cc1c(NS(=O)(=O)c2c(Cl)cc(-c3ccnc(N4CCNCC4)c3)cc2Cl)c(CC(C)C)nn1C [ZELENIRSTAT]
EC50 [11]: 1830 nM
Activity [12]: 0.43%

Cc1nn(C)c(C)c1N(C(F)F)S(=O)(=O)c1c(Cl)cc(CCCC2CCN(C)CC2)cc1Cl
EC50 [13]: 2400 nM
Activity [14]: 52%

NCCCCCCCCCC(=O)N[C@@H](CO)C(=O)N[C@@H](CCCCN)C(=O)NCCC1CCCCC1
IC50 [15]: 680 nM
IC50 [16]: 24300 nM
IC50 [17]: 60 nM

Cc1nn(C)c(C)c1NS(=O)(=O)c1c(Cl)cc(Br)cc1Cl
IC50 [18]: 340 nM

Cc1nn(C)c(C)c1Cc1nnc(-c2sc3ccccc3c2NC2CCNCC2)o1
Ki [19]: 8 nM
Ki [20]: 2.7 nM

Cc1ncc(CNC(=O)C2CN(c3nc(NCCN(C)C)ncc3Cl)C2)cn1
IC50 [21]: 480 nM
IC50 [22]: 70000 nM
IC50 [23]: 76000 nM

O=C(Nc1nc2cc(F)ccc2s1)[C@H]1CC[C@@H](NCc2ccc3ccccc3c2)CC1
IC50 [5]: 53000 nM
Activity [6]: 80%

Cc1cc(CN2C(=O)COc3cc(CCCOC[C@@H]4CCCN4C)ccc32)no1
IC50 [7]: 9 nM
IC50 [8]: 24000 nM
EC50 [9]: 7 nM

Cc1nn(C)c(C)c1NS(=O)(=O)c1c(Cl)cc(-c2ccnc(N3CCNCC3)c2)cc1Cl
Ki [24]: 2.5 nM
EC50 [25]: 7000 nM
EC50 [26]: 23000 nM

Cc1nn(C)c(CC(C)C)c1NS(=O)(=O)c1c(Cl)cc(-c2cccc(C(C)(C)N)c2)cc1Cl
IC50 [27]: 10 nM
IC50 [28]: 2000 nM
